Results: patent US7538102B2, “Compounds for the treatment of Hepatitis C” (Bristol-Myers Squibb Company, priority 2007, dated 2009)
Where two headings read alike, the source gives them in different places.

How the values were obtained:
HCV replicon = HCV replicon FRET / luciferase assay; assay type: cell-based; settings: Hepatitis C virus
Procedure: FRET Assay Preparation. The HCV FRET screening assay was performed in 96-well cell culture plates. The FRET peptide (Anaspec, Inc.) (Taliani et al., Anal. Biochem. 1996, 240, 60-67) contains a fluorescence donor, EDANS, near one end of the peptide and an acceptor, DABCYL, near the other end. The fluorescence of the peptide is quenched by […] resonance energy transfer (RET) between the donor and the acceptor, but as the NS3 protease cleaves the peptide the products are released from RET quenching and the fluorescence of the donor becomes apparent. The assay reagent was made as follows: 5× cell Luciferase cell culture lysis reagent from Promega (#E153A) diluted to 1× with dH2O, NaCl added to 150 mM final, the FRET peptide diluted to 20 μM final from a 2 mM stock.
To prepare plates, HCV replicon cells, with or without a Renilla luciferase reporter gene, were trypsinized and plated in a 96-well plate with titrated test compounds added in columns 3 through 12; columns 1 and 2 contained a control compound (HCV control inhibitor), and the bottom row contained cells with DMSO only. The plates were then placed in a CO2 incubator at 37° C.
Assays. Subsequent to addition of the test compounds described above (FRET Assay Preparation), at various times the plate was removed and Alamar blue solution (Trek Diagnostics, #00-100) was added to measure cellular toxicity. After reading in a Cytoflour 4000 instrument (PE Biosystems), plates were rinsed with PBS and then used for FRET assay by the addition of 30 ul of the FRET peptide assay reagent described above (FRET Assay Preparation) per well. The plate was then placed into the Cytoflour 4000 instrument which had been set to 340 excite/490 emission, automatic mode for up to 20 cycles and the plate read in a kinetic mode. Typically, the signal to noise using an endpoint analysis after the reads was at least three-fold. Alternatively, after Alamar blue reading, plates were rinsed with PBS, then used for luciferase assay using the Promega Dual-Glo Luciferase Assay System or the Promega EnduRen Live Cell Substrate assay.
Compound analysis was performed by quantification of the relative HCV replicon inhibition and the relative cytotoxicity values. To calculate cytoxicity values, the average Alamar Blue fluorescence signals from the control wells were set as 100% non-toxic. The individual signals in each of the compound test wells were then divided by the average control signal and multiplied by 100% to determine […]. To calculate the HCV replicon inhibition values, an average background value was obtained from the two wells containing the highest amount of HCV control inhibitor at the end of the assay period. These numbers were similar to those obtained from naive Huh-7 cells. The background numbers were then subtracted from the average signal obtained from the control wells and this number was used as 100% activity. The individual signals in each of the compound test wells were then divided by the averaged control values after background subtraction and multiplied by 100% to determine percent activity. EC50 values were calculated as the concentration which caused a 50% reduction in FRET or luciferase activity. The two numbers generated for the compound plate, percent cytoxicity and percent activity, were used to determine compounds of interest for further analysis.

HCV NS5B = molecular target: T1, HCV NS5B (Hepatitis C virus genotype 1b, UniProt Q9WMX2); experiment: HCV NS5B RdRp enzyme assay (standard or modified); assay type: biochemical
T1 construct: The protein was expressed with an 18 amino acid C-terminal truncation to enhance the solubility; made in house; host or cells: E. coli BL21(DE3)
Procedure: HCV NS5B RdRp cloning, expression, and purification. The cDNA encoding the NS5B protein of HCV, genotype 1b, was cloned into the pET21a expression vector. The protein was expressed with an 18 amino acid C-terminal truncation to enhance the solubility. The E. coli competent cell line BL21(DE3) was used for expression of the protein. Cultures were grown at 37° C. for ˜4 hours until the cultures reached an optical density of 2.0 at 600 nm. The cultures were cooled to 20° C. and induced with 1 mM IPTG. Fresh ampicillin was added to a final concentration of 50 μg/ml and the cells were grown overnight at 20° C.
Cell pellets (3 L) were lysed for purification to yield 15-24 mgs of purified NS5B. The lysis buffer consisted of 20 mM Tris-HCl, pH 7.4, 500 mM NaCl, 0.5% triton X-100, 1 mM DTT, 1mM EDTA, 20% glycerol, 0.5 mg/ml lysozyme, 10 mM MgCl2, 15 ug/ml deoxyribonuclease I, and Complete TM protease inhibitor tablets (Roche). After addition of the lysis buffer, frozen cell pellets were resuspended using a tissue homogenizer. To reduce the viscosity of the sample, aliquots of the lysate were sonicated on ice using a microtip attached to a Branson sonicator. The sonicated lysate was centrifuged at 100,000×g for 1 hr at 4° C. and filtered through a 0.2 μm filter unit (Corning).
The protein was purified using two sequential chromatography steps: Heparin sepharose CL-6B and polyU sepharose 4B (Pharmacia). The chromatography buffers were identical to the lysis buffer but contained no lysozyme, deoxyribonuclease I, MgCl2 or protease inhibitor and the NaCl concentration of the buffer was adjusted according to the requirements for charging the protein onto the column. Each column was eluted with a NaCl gradient which varied in length from 5-50 column volumes depending on the column type. After the final chromatography step, the resulting purity of the enzyme is >90% based on SDS-PAGE analysis. The enzyme was aliquoted and stored at −80° C.
Standard HCV NS5B RdRp enzyme assay. HCV RdRp genotype 1b assays were run in a final volume of 60 μl in 96 well plates (Corning 3600). The assay buffer is composed of 20 mM Hepes, pH 7.5, 2.5 mM KCl, 2.5 mM MgCl2, 1 mM DTT, 1.6 U RNAse inhibitor (Promega N2515), 0.01 mg/ml BSA (Sigma B6917), and 2% glycerol. All compounds were serially diluted (3-fold) in DMSO and diluted further in water such that the final concentration of DMSO in the assay was 2%. HCV RdRp genotype 1b enzyme was used at a final concentration of 28 nM. A polyA template was used at 6 nM, and a biotinylated oligo-dT12 primer was used at 180 nM final concentration. Template was obtained commercially (Amersham 27-4110). Biotinylated primer was prepared by Sigma Genosys. 3H-UTP was used at 0.6 μCi (0.29 μM total UTP). Reactions were initiated by the addition of enzyme, incubated at 30° C. for 60 min, and stopped by adding 25 μl of 50 mM EDTA containing SPA beads (4 μg/pl, Amersham RPNQ 0007). Plates were read on a Packard Top Count NXT after >1 hr incubation at room temperature.
Modified HCV NS5B RdRp enzyme assay. A modified enzyme assay was performed essentially as described for the standard enzyme assay except for the following: The biotinylated oligo dT12 primer was precaptured on streptavidin-coated SPA beads by mixing primer and beads in assay buffer and incubating at room temperature for one hour. Unbound primer was removed after centrifugation. The primer-bound beads were resuspended in 20 mM Hepes buffer, pH 7.5 and used in the assay at final concentrations of 20 nM primer and 0.67 μg/μl beads. Order of addition in the assay: enzyme (1.75 nM) was added to diluted compound followed by the addition of a mixture of template (0.36 nM), 3H-UTP (0.6 μCi, 0.29 μM), and primer-bound beads, to initiate the reaction; concentrations given are final. Reactions were allowed to proceed for 4 hours at 30° C.
IC50 values for compounds were determined using seven different [I]. […]

[1] = HCV replicon cells, 50% reduction in FRET or luciferase activity, read-out: EC50
[2] = HCV NS5B RdRp genotype 1b, standard or modified enzyme assay not specified, read-out: IC50

T1 sequence (Q9WMX2 2420-2992): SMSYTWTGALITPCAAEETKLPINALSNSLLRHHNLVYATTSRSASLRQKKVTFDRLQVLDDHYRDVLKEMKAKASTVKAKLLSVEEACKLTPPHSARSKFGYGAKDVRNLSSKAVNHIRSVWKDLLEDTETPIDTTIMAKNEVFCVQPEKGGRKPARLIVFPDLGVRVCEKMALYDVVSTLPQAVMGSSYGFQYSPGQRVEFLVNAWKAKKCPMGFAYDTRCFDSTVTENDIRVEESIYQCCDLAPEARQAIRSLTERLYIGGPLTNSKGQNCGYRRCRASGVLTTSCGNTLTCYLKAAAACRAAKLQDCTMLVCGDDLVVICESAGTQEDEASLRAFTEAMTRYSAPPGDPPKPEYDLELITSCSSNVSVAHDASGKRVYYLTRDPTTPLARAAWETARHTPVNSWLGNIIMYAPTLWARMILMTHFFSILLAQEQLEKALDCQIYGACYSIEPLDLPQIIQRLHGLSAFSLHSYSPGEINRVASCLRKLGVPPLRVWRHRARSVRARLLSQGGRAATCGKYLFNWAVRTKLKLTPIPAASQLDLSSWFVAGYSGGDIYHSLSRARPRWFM

| Structure (SMILES) | EC50 (HCV replicon; [1]) | IC50 (HCV NS5B; [2]) | EC50 (HCV replicon) | IC50 (HCV NS5B) |
| --- | --- | --- | --- | --- |
| COc1ccc2c(c1)C1CC1(C(=O)O[C@@H]1C[C@@H]3CC[C@@]1(C)C3(C)C)Cn1c-2c(C2CCCCC2)c2ccc(C(=O)NS(=O)(=O)N(C)C)cc21 (stereo partly drawn) | > 1000 nM | 3 to 1000 nM |  |  |
| COc1ccc2c(c1)C1CC1(C(=O)N(C)C1CCN(C)C1)Cn1c-2c(C2CCCCC2)c2ccc(C(=O)NS(=O)(=O)N(C)C)cc21 (stereo not drawn) | 3 to 1000 nM | 3 to 1000 nM |  |  |
| COc1ccc2c(c1)C1CC1(C(=O)N(C)C1CCN(C)CC1)Cn1c-2c(C2CCCCC2)c2ccc(C(=O)NS(=O)(=O)N(C)C)cc21 (stereo not drawn) | 3 to 1000 nM | 3 to 1000 nM |  |  |
| COc1ccc2c(c1)C1CC1(C(=O)N(C)C(CN(C)C)c1ccccc1)Cn1c-2c(C2CCCCC2)c2ccc(C(=O)NS(=O)(=O)N(C)C)cc21 (stereo not drawn) | 3 to 1000 nM | 3 to 1000 nM |  |  |
| COc1ccc2c(c1)C1CC1(C(=O)N1CCCC1CN1CCCC1)Cn1c-2c(C2CCCCC2)c2ccc(C(=O)NS(=O)(=O)N(C)C)cc21 (stereo not drawn) | 3 to 1000 nM | 3 to 1000 nM |  |  |
| COc1ccc2c(c1)C1CC1(C(=O)N(C)CCN1CCCC1)Cn1c-2c(C2CCCCC2)c2ccc(C(=O)NS(=O)(=O)N(C)C)cc21 (stereo not drawn) | 3 to 1000 nM | 3 to 1000 nM |  |  |
| COc1ccc2c(c1)C1CC1(C(=O)N(C)CC1CCCN1C)Cn1c-2c(C2CCCCC2)c2ccc(C(=O)NS(=O)(=O)N(C)C)cc21 (stereo not drawn) | 3 to 1000 nM | 3 to 1000 nM |  |  |
| COc1ccc2c(c1)C1CC1(C(=O)N(C)CC1CCCCN1C)Cn1c-2c(C2CCCCC2)c2ccc(C(=O)NS(=O)(=O)N(C)C)cc21 (stereo not drawn) | 3 to 1000 nM | 3 to 1000 nM |  |  |
| COc1ccc2c(c1)C1CC1(C(=O)N(C)[C@@H]1CCCC[C@H]1N(C)C)Cn1c-2c(C2CCCCC2)c2ccc(C(=O)NS(=O)(=O)N(C)C)cc21 (stereo partly drawn) | 3 to 1000 nM | 3 to 1000 nM |  |  |
| COc1ccc2c(c1)C1CC1(C(=O)N(C1CC1)[C@@H]1CCCC[C@H]1N(C)C)Cn1c-2c(C2CCCCC2)c2ccc(C(=O)NS(=O)(=O)N(C)C)cc21 (stereo partly drawn) | 3 to 1000 nM | 3 to 1000 nM |  |  |
| COc1ccc2c(c1)C1CC1(C(=O)N[C@@H]1CCC[C@H]1N(C)C)Cn1c-2c(C2CCCCC2)c2ccc(C(=O)NS(=O)(=O)N(C)C)cc21 (stereo partly drawn) | 3 to 1000 nM | 3 to 1000 nM |  |  |
| COc1ccc2c(c1)C1CC1(C(=O)N1CCCN(C(=O)OC(C)(C)C)CC1)Cn1c-2c(C2CCCCC2)c2ccc(C(=O)NS(=O)(=O)C3CC3)cc21 (stereo not drawn) |  | 3 to 1000 nM |  |  |
| COc1ccc2c(c1)C1CC1(C(=O)N1CCCN(CCCN3CCOCC3)CC1)Cn1c-2c(C2CCCCC2)c2ccc(C(=O)NS(=O)(=O)C(C)C)cc21 (stereo not drawn) |  | 3 to 1000 nM |  |  |
| COc1ccc2c(c1)C=C(C(=O)N1CCCN(CCCN3CCOCC3)CC1)Cn1c-2c(C2CCCCC2)c2ccc(C(=O)NS(=O)(=O)C3CC3)cc21 |  | 3 to 1000 nM |  |  |
| COc1ccc2c(c1)C1CC1(C(=O)NC1CC3CCC(C1)N3C)Cn1c-2c(C2CCCCC2)c2ccc(C(=O)NS(=O)(=O)N(C)C)cc21 (stereo not drawn) |  |  | 3 to 1000 nM | 3 to 1000 nM |
| COc1ccc2c(c1)C1CC1(C(=O)N[C@@H]1CC3CCN1CC3)Cn1c-2c(C2CCCCC2)c2ccc(C(=O)NS(=O)(=O)N(C)C)cc21 (stereo partly drawn) |  |  | 3 to 1000 nM | 3 to 1000 nM |
| COc1ccc2c(c1)C1CC1(C(=O)N(C)C1CC3CCC1N3C)Cn1c-2c(C2CCCCC2)c2ccc(C(=O)NS(=O)(=O)N(C)C)cc21 (stereo not drawn) |  |  | 3 to 1000 nM | 3 to 1000 nM |
| COc1ccc2c(c1)C1CC1(C(=O)N1CCN(CC(=O)N3CCCC3)CC1)Cn1c-2c(C2CCCCC2)c2ccc(C(=O)NS(=O)(=O)C(C)C)cc21 (stereo not drawn) | 3 to 1000 nM | 3 to 1000 nM |  |  |
| COc1ccc2c(c1)C1CC1(C(=O)N1CCN(Cc3ccccc3)C[C@H]1C)Cn1c-2c(C2CCCCC2)c2ccc(C(=O)NS(C)(=O)=O)cc21 (stereo partly drawn) | 3 to 1000 nM | 3 to 1000 nM |  |  |
| COc1ccc2c(c1)C1CC1(C(=O)N1CCN(C(=O)OC(C)(C)C)C[C@H]1c1ccccc1)Cn1c-2c(C2CCCCC2)c2ccc(C(=O)NS(C)(=O)=O)cc21 (stereo partly drawn) | 3 to 1000 nM | 3 to 1000 nM |  |  |
| COc1ccc2c(c1)C1CC1(C(=O)N1CCN(C)CC1c1ccccc1)Cn1c-2c(C2CCCCC2)c2ccc(C(=O)NS(=O)(=O)N(C)C)cc21 (stereo not drawn) [drawing 46] |  | 3 to 1000 nM |  |  |
| COc1ccc2c(c1)C1CC1(C(=O)N1CCN(C)CC1c1ccccc1)Cn1c-2c(C2CCCCC2)c2ccc(C(=O)NS(=O)(=O)C(C)C)cc21 (stereo not drawn) [drawing 56] |  | 3 to 1000 nM |  |  |
| COc1ccc2c(c1)C1CC1(C(=O)N1CCN(C)CC1c1ccccc1)Cn1c-2c(C2CCCCC2)c2ccc(C(=O)NS(=O)(=O)N(C)C)cc21 (stereo not drawn) [drawing 64] |  | 3 to 1000 nM |  |  |
| COc1ccc2c(c1)C1CC1(C(=O)N1CCN(C)CC1c1ccccc1)Cn1c-2c(C2CCCCC2)c2ccc(C(=O)NS(=O)(=O)N(C)C)cc21 (stereo not drawn) [drawing 65] |  | 3 to 1000 nM |  |  |
| COc1ccc2c(c1)C1C[C@]1(C(=O)N1CCN(C)CC1c1ccccc1)Cn1c-2c(C2CCCCC2)c2ccc(C(=O)NS(=O)(=O)C(C)C)cc21 (stereo partly drawn) [drawing 79] |  | 3 to 1000 nM |  |  |
